Source: patent US7981512B2, “Organic polymer-magnetic particles and process for producing same” (JSR Corporation, priority 2006, dated 2011)

Conditions: distilled water
Description: In the invention, the solubility in water at 25° C. of the monomer is determined by slowly adding the monomer in question to distilled water at 25° C. while stirring until the monomer separates from the water. The amount (% by mass) of the monomer in the solution immediately before separation is defined as the solubility.

| Structure (SMILES) | solubility in water at 25° C. |
| --- | --- |
| C=C(C)C(=O)OCCOC(=O)c1ccccc1C(=O)O [2-methacryloyloxyethyl phthalate] | less than 0.2 % by mass |
| C=C(C)C(=O)O [methacrylic acid] | 100 % by mass |
